What was measured:
[1] = Acute and chronic toxicity of DHPE in rodents; assay type: in vivo; details: injected doses 5 to 250 mg per kg of body weight
Excerpt: The amount of complexing agent required to be injected into a test animal or human patient for a satisfactory skeleton scintigraphy is three orders of magnitude smaller than the highest tested dose.

[2] = Gamma camera bone imaging in anesthetized rabbit; assay type: in vivo
Description: Two milliliters of a sterile saline solution of Na^+99m TcO4^- (IO millicuries Tc-99m) were added to a pharmaceutical vial containing 2 mL of a sterile aqueous solution containing 2.2 mg of DHPE, 50μg of SnCl2 and 50 mg of CH3 COONa. The vial was vigorously shaken, then allowed to stand for five minutes at room temperature. Paper chromatography of the solution was run according to the method outlined in Example 1 and only 2% unreacted pertechnetate was found.
Bone imaging was carried out by intravenous injection of 0.5 milliliters of this solution into the ear vein of an anesthetized rabbit positioned under a gamma camera. […] As time passed the quality of the images improved. […] Less than 30% of the initial radioactivity in the blood was detected in the blood 30 minutes after injection.

[3] = Distribution in rats of the complex prepared by electrochemical reduction; assay type: in vivo, Hooded strain rats; details: i.v. tail vein, electrochemically prepared complex
Description: Four milliliters of a sterile aqueous solution containing 1.5 mg of DHPE, 20 mg of CH3 COONa and 10 mCi of Na^+99m TcO4^- were added to a sterile cell equipped with tin electrodes. An electrical charge of 5×10^-2 coulombs (20 sec×2.5 mA) was passed through to produce the ^99m Tc-DHPE complex. Paper chromatography of the solution was run according to the method outlined in Example 1. The determined radiochemical purity of the ^99m Tc-DHPE compound was 98%. The complex was assayed by intravenous injections into the tail veins of Hooded strain rats as in Example 1, the animals being sacrificed at 1, 2, 4, 6, 12, and 24 hours.

[4] = Organ distribution of ^99m Tc-DHPE (freeze dried kit) in rats, i.v. tail vein; assay type: in vivo, Hooded strain rats; design: Dose per Organ: unit not given here
Description: Twenty five milliliters of a sterile aqueous solution of 55.5 mg of DHPE were mixed with 12.5 mL of a freshly prepared sterile aqueous solution containing 0.1 mg of SnCl2 per milliliter and with 12.5 mL of a sterile aqueous solution of sodium acetate 10% W/V. Portions of 2 mL each of the resulting solution were transferred through a Millipore filter of 0.22 micron pore size into pharmaceutical vials. The vials were freeze dried for 24 hours and were sealed in vacuum. Four milliliters of saline solution of Na^+99m TcO4^- (20 millicuries Tc-99m) were added to each vial. The vial was vigorously shaken, and then allowed to stand for five minutes at normal ambient temperature.
Two hundred fifty microliters of the above solution of the radiopharmaceutical ^99m Tc-DHPE were injected i.v. (intravenously) in the tail vein of each of six Hooded strain, closed colony, random breeding rats. The rats were sacrificed at the following time periods 1 hr, 2 hr, 4 hr, 6 hr, 12 hr, and 24 hrs. The organs of each rat were isolated and the distribution of Tc-99m determined by assay with a single channel analyzer equipped with a well type NaI(T1) scintillation detector.
The experimental error in the distribution vs. time data for the ^99m Tc-DHPE complex was minimized by averaging six runs under identical conditions, always with the Hooded strain rats. The effect of organ geometry on radioactivity counting efficiency was taken into account. Corrections were also made so that, upon extrapolation back to time zero, the summation of activity in the organs was equal to the injected activity (i.e. by comparison to standards).

O=P(O)(O)C(O)C(O)P(=O)(O)O (centres unmarked) [DHPE, 1,2-dihydroxy-1,2-bis(dihydroxyphosphinyl)ethane]
deaths or adverse effects (acute and chronic toxicity) [1]: no deaths or adverse effects

^99m Tc-1,2-Dihydroxy-1,2-bis(dihydroxyphosphinyl)ethane Complex [^99m Tc-DHPE]
initial radioactivity in the blood detected in the blood ([2]; 30 minutes after injection): Less than 30%
removal of the radiopharmaceutical from the blood ([2]; i.v. ear vein): fast removal
quality of skeleton images ([2]; i.v. ear vein, 1 to 2.5 hrs post injection): Excellent images of the skeleton
skeleton visualization ([2]; i.v. ear vein, thirty minutes post injection): clearly visualized
excretion [3]: mainly to the urine
skeleton uptake [3]: rapid skeleton uptake
uptake by other organs ([3]; effect on bone specificity): did not detract significantly from bone specificity
Dose per Organ ([4]; ADRENALS, 1 hr): 0.006 ± 0.006
Dose per Organ ([4]; ADRENALS, 2 hr): 0.007 ± 0.005
Dose per Organ ([4]; ADRENALS, 4 hr): 0.003 ± 0.001
Dose per Organ ([4]; ADRENALS, 6 hr): 0.003 ± 0.001
Dose per Organ ([4]; ADRENALS, 12 hr): 0.001 ± 0.000
Dose per Organ ([4]; ADRENALS, 24 hr): 0.001 ± 0.000
Dose per Organ ([4]; BLOOD, 1 hr): 0.742 ± 0.384
Dose per Organ ([4]; BLOOD, 2 hr): 0.895 ± 0.515
Dose per Organ ([4]; BLOOD, 4 hr): 0.643 ± 0.414
Dose per Organ ([4]; BLOOD, 6 hr): 0.322 ± 0.067
Dose per Organ ([4]; BLOOD, 12 hr): 0.312 ± 0.209
Dose per Organ ([4]; BLOOD, 24 hr): 0.104 ± 0.015
Dose per Organ ([4]; BONE, 1 hr): 44.426 ± 2.556
Dose per Organ ([4]; BONE, 2 hr): 45.722 ± 3.411
Dose per Organ ([4]; BONE, 4 hr): 53.447 ± 2.828
Dose per Organ ([4]; BONE, 6 hr): 47.673 ± 6.612
Dose per Organ ([4]; BONE, 12 hr): 42.362 ± 4.449
Dose per Organ ([4]; BONE, 24 hr): 43.317 ± 2.825
Dose per Organ ([4]; FECES, 1 hr): 0.034 ± 0.054
Dose per Organ ([4]; FECES, 2 hr): 0.053 ± 0.088
Dose per Organ ([4]; FECES, 4 hr): 0.394 ± 0.343
Dose per Organ ([4]; FECES, 6 hr): 0.570 ± 0.205
Dose per Organ ([4]; FECES, 12 hr): 0.848 ± 0.601
Dose per Organ ([4]; FECES, 24 hr): 3.149 ± 1.799
Dose per Organ ([4]; HEART, 1 hr): 0.022 ± 0.008
Dose per Organ ([4]; HEART, 2 hr): 0.026 ± 0.012
Dose per Organ ([4]; HEART, 4 hr): 0.018 ± 0.008
Dose per Organ ([4]; HEART, 6 hr): 0.015 ± 0.004
Dose per Organ ([4]; HEART, 12 hr): 0.011 ± 0.005
Dose per Organ ([4]; HEART, 24 hr): 0.006 ± 0.001
Dose per Organ ([4]; KIDNEYS, 1 hr): 1.523 ± 0.371
Dose per Organ ([4]; KIDNEYS, 2 hr): 1.782 ± 0.365
Dose per Organ ([4]; KIDNEYS, 4 hr): 1.441 ± 0.277
Dose per Organ ([4]; KIDNEYS, 6 hr): 2.716 ± 0.365
Dose per Organ ([4]; KIDNEYS, 12 hr): 3.018 ± 0.825
Dose per Organ ([4]; KIDNEYS, 24 hr): 1.187 ± 0.119
Dose per Organ ([4]; LARGE INTESTINE, 1 hr): 1.548 ± 1.380
Dose per Organ ([4]; LARGE INTESTINE, 2 hr): 2.210 ± 1.789
Dose per Organ ([4]; LARGE INTESTINE, 4 hr): 2.906 ± 3.009
Dose per Organ ([4]; LARGE INTESTINE, 6 hr): 3.209 ± 0.684
Dose per Organ ([4]; LARGE INTESTINE, 12 hr): 0.648 ± 0.615
Dose per Organ ([4]; LARGE INTESTINE, 24 hr): 0.415 ± 0.448
Dose per Organ ([4]; LIVER, 1 hr): 0.095 ± 0.018
Dose per Organ ([4]; LIVER, 2 hr): 0.184 ± 0.049
Dose per Organ ([4]; LIVER, 4 hr): 0.187 ± 0.032
Dose per Organ ([4]; LIVER, 6 hr): 0.168 ± 0.044
Dose per Organ ([4]; LIVER, 12 hr): 0.131 ± 0.022
Dose per Organ ([4]; LIVER, 24 hr): 0.134 ± 0.030
Dose per Organ ([4]; LUNGS, 1 hr): 0.104 ± 0.033
Dose per Organ ([4]; LUNGS, 2 hr): 0.149 ± 0.105
Dose per Organ ([4]; LUNGS, 4 hr): 0.121 ± 0.029
Dose per Organ ([4]; LUNGS, 6 hr): 0.032 ± 0.007
Dose per Organ ([4]; LUNGS, 12 hr): 0.022 ± 0.015
Dose per Organ ([4]; LUNGS, 24 hr): 0.044 ± 0.024
Dose per Organ ([4]; MUSCLE, 1 hr): 1.138 ± 0.511
Dose per Organ ([4]; MUSCLE, 2 hr): 2.371 ± 1.206
Dose per Organ ([4]; MUSCLE, 4 hr): 2.193 ± 0.974
Dose per Organ ([4]; MUSCLE, 6 hr): 4.216 ± 2.815
Dose per Organ ([4]; MUSCLE, 12 hr): 2.139 ± 0.389
Dose per Organ ([4]; MUSCLE, 24 hr): 2.699 ± 1.989
Dose per Organ ([4]; SMALL INTESTINE, 1 hr): 0.963 ± 0.868
Dose per Organ ([4]; SMALL INTESTINE, 2 hr): 1.963 ± 2.085
Dose per Organ ([4]; SMALL INTESTINE, 4 hr): 1.009 ± 1.243
Dose per Organ ([4]; SMALL INTESTINE, 6 hr): 0.495 ± 0.205
Dose per Organ ([4]; SMALL INTESTINE, 12 hr): 0.318 ± 0.113
Dose per Organ ([4]; SMALL INTESTINE, 24 hr): 0.091 ± 0.033
Dose per Organ ([4]; SPLEEN, 1 hr): 0.020 ± 0.007
Dose per Organ ([4]; SPLEEN, 2 hr): 0.026 ± 0.007
Dose per Organ ([4]; SPLEEN, 4 hr): 0.020 ± 0.003
Dose per Organ ([4]; SPLEEN, 6 hr): 0.022 ± 0.007
Dose per Organ ([4]; SPLEEN, 12 hr): 0.008 ± 0.002
Dose per Organ ([4]; SPLEEN, 24 hr): 0.010 ± 0.004
Dose per Organ ([4]; STOMACH, 1 hr): 0.288 ± 0.137
Dose per Organ ([4]; STOMACH, 2 hr): 0.388 ± 0.176
Dose per Organ ([4]; STOMACH, 4 hr): 0.226 ± 0.243
Dose per Organ ([4]; STOMACH, 6 hr): 0.152 ± 0.148
Dose per Organ ([4]; STOMACH, 12 hr): 0.082 ± 0.023
Dose per Organ ([4]; STOMACH, 24 hr): 0.040 ± 0.029
Dose per Organ ([4]; URINE, 1 hr): 28.584 ± 5.562
Dose per Organ ([4]; URINE, 2 hr): 28.295 ± 1.829
Dose per Organ ([4]; URINE, 4 hr): 31.469 ± 4.991
Dose per Organ ([4]; URINE, 6 hr): 24.033 ± 5.995
Dose per Organ ([4]; URINE, 12 hr): 6.519
Dose per Organ ([4]; URINE, 24 hr): 8.600
excretion ([4]; rats, i.v.): mainly via the kidneys to urine
removal from the blood ([4]; rats, i.v.): fast removal
concentration to the skeleton ([4]; rats, i.v., in comparison to other organs or tissues): fast and high concentration to the skeleton
